Reference: US20110104055A1, “SUBSTITUTED N-ARYL BENZAMIDES AND RELATED COMPOUNDS FOR TREATMENT OF AMYLOID DISEASES AND SYNUCLEINOPATHIES” (priority 2002, published 2011)

Legend:
Format in all cases: biochemical
Aβ 1-42 fibrils [1] = target: T1, Aβ 1-42 fibrils (Homo sapiens, UniProt P05067); experiment: Thioflavin T fluorometry, disruption of pre-formed Aβ 1-42 fibrils (Example 6); settings: 3 days; for % inhibition of Aβ (Thioflavin T fluorometry): 25 μM pre-fibrillized Aβ 1-42, 37° C.
T1 construct: purchased Bachem Inc
T1 sequence (P05067 672-713): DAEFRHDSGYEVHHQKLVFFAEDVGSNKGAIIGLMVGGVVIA
Experimental: The biological activity of the compounds provided herein as disruptors/inhibitors of Alzheimer's disease β-amyloid protein (Aβ) fibrils, type 2 diabetes IAPP fibrils and Parkinson's disease NAC fibrils was assessed by determining the efficacy of the compounds to cause a disassembly/disruption of pre-formed amyloid fibrils of Alzheimer's disease (i.e. consisting of Aβ 1-42 fibrils), IAPP fibrils and Parkinson's disease NAC fibrils. In one study, Thioflavin T fluorometry was used to determine the effects of the compounds, and of EDTA (as a negative control). In this assay Thioflavin T binds specifically to fibrillar amyloid, and this binding produces a fluorescence enhancement at 485 nm that is directly proportional to the amount of fibrils present. The higher the fluorescence, the greater the amount of fibrils present (Naki et al, Lab. Invest. 65:104-110, 1991; Levine III, Protein Sci. 2:404-410, 1993; Amyloid: Int. J. Exp. Clin. Invest. 2:1-6, 1995). The disruption of Aβ 1-42, even in its monomeric form, was confirmed by a study involving the use of SDS-PAGE and Western blotting methods.
In one study, Thioflavin T fluorometry was used to determine the effects of the compounds, and of EDTA (as a negative control). In this assay Thioflavin T binds specifically to fibrillar amyloid, and this binding produces a fluorescence enhancement at 485 nm that is directly proportional to the amount of amyloid fibrils formed. The higher the fluorescence, the greater the amount of amyloid fibrils formed (Naki et al., Lab. Invest. 65:104-110, 1991; Levine III, Protein Sci. 2:404-410, 1993; Amyloid: Int. J. Exp. Clin. Invest. 2:1-6, 1995).
Following 3 days of co-incubation, 50 μl of each incubation mixture was transferred into a 96-well microtiter plate containing 150 μl of distilled water and 50 μl of a Thioflavin T solution (i.e. 500 mM Thioflavin T in 250 mM phosphate buffer, pH 6.8). The fluorescence was read at 485 nm (444 nm excitation wavelength) using an ELISA plate fluorometer after subtraction with buffer alone or compound alone, as blank).

Aβ 1-42 fibrils [2] = target: T1, Aβ 1-42 fibrils; experiment: Congo red binding assay, Aβ 1-42 fibrils (Example 6); settings: 3-day incubation
Experimental: In the Congo red binding assay the ability of a given test compound to alter amyloid (Aβ 1-42 fibrils, IAPP fibrils or NAC fibrils) binding to Congo red was quantified. In this assay, Aβ 1-42 fibrils, IAPP fibril or NAC fibrils and test compounds were incubated for 3 days and then vacuum filtered through a 0.2 μm filter. The amount of Aβ 1-42 fibrils, IAPP fibrils or NAC fibrils retained in the filter was then quantitated following staining of the filter with Congo red. After appropriate washing of the filter, any lowering of the Congo red color on the filter in the presence of the test compound (compared to the Congo red staining of the amyloid protein in the absence of the test compound) was indicative of the test compound's ability to diminish/alter the amount of aggregated and congophilic Aβ 1-42 fibrils, IAPP fibrils or NAC fibrils.
(§1) In the Congo red binding assay the ability of a test compound to alter amyloid (in this case, Aβ) binding to Congo red is quantified. In this assay, Aβ 1-42 and test compounds were incubated for 3 days and then vacuum filtered through a 0.2 μm filter. The amount of Aβ 1-42 retained in the filter was then quantified following staining of the filter with Congo red. After appropriate washing of the filter, any lowering of the Congo red color on the filter in the presence of the test compound (compared to the Congo red staining of the amyloid protein in the absence of the test compound) was indicative of the test compound's ability to diminish/alter the amount of aggregated and congophilic Aβ.
In one study, the ability of Aβ fibrils to bind Congo red in the absence or presence of increasing amounts of the compounds or EDTA (at Aβ:test compound weight ratios of 1:0.001, 1:0.01, 1:0.1 and 1:1) was determined.

Aβ 1-42 fibrils [3] = target: T1, Aβ 1-42 fibrils; experiment: Congo red binding assay, Aβ 1-42 fibrils (Example 11); settings: 3-day incubation
Experimental: as §1, with “binding assay,” for “binding assay”, “then quantitated” for “then quantified”
In one study, the ability of Aβ fibrils to bind Congo red in the absence or presence of increasing amounts of the compounds or EDTA (at Aβ:test compound weight ratios of 1:1, 1:0.1, 1:0.01 or 1:0.001) was determined.

[4] = Aβ:test compound wt/wt ratio 1:0.01
[5] = Aβ:test compound wt/wt ratio 1:1
[6] = Aβ:test compound wt/wt ratio 1:0.001
[7] = Aβ:test compound wt/wt ratio 1:0.1

O=C(O)CN(CCN(CC(=O)O)CC(=O)O)CC(=O)O [EDTA]
% inhibition of Aβ (Thioflavin T fluorometry) (Aβ 1-42 fibrils [1]; [4]): 0.2 ± 3.03% | % inhibition of Aβ (Thioflavin T fluorometry) (Aβ 1-42 fibrils [1]; [5]): 0.0 ± 3.59% | disruption/disassembly of preformed Aβ 1-42 fibrils, in words (Aβ 1-42 fibrils [1]; Thioflavin T fluorometry, all concentrations tested): no significant inhibition/disruption | inhibition of Aβ 1-42 fibril binding to Congo red, in words (Aβ 1-42 fibrils [2]): no significant inhibition | % inhibition of Aβ (Congo red binding) (Aβ 1-42 fibrils [2]; [6]): 0.0 ± 0.62% | % inhibition of Aβ (Congo red binding) (Aβ 1-42 fibrils [2]; [4]): 0.0 +/− 0.49% | % inhibition of Aβ (Congo red binding) (Aβ 1-42 fibrils [2]; [7]): 0.0 ± 0.76% | % inhibition of Aβ (Congo red binding) (Aβ 1-42 fibrils [2]; [5]): 3.9 +/− 1.37% | % Inhibition Aβ (result ± S.D.), Congo red binding (Aβ 1-42 fibrils [3]; [6]): 1.2 ± 7.95% | % Inhibition Aβ (result ± S.D.), Congo red binding (Aβ 1-42 fibrils [3]; [4]): 8.4 ± 4.00% | % Inhibition Aβ (result ± S.D.), Congo red binding (Aβ 1-42 fibrils [3]; [7]): 0.0 ± 6.83% | % Inhibition Aβ (result ± S.D.), Congo red binding (Aβ 1-42 fibrils [3]; [5]): 8.4 ± 2.74% | inhibition of Aβ 1-42 fibril binding to Congo red, in words (Aβ 1-42 fibrils [3]; all concentrations tested): no significant inhibition
